According to US9750738B2, “Arylpiperazine opioid receptor antagonists” (RESEARCH TRIANGLE INSTITUTE, priority 2010, dated 2017):

How the values were obtained:
[1] = molecular target: T1, cloned human μ opioid receptor (Homo sapiens, UniProt P35372); experiment: Inhibition of DAMGO-stimulated [35S]GTPγS binding; format: biochemical; conditions: antagonism of agonist DAMGO; for Kb: read-out: μ, DAMGO Ke
T1 construct: expressed in transfected cells

[2] = molecular target: T2, cloned human δ opioid receptor (Homo sapiens, UniProt P41143); experiment: Inhibition of DPDPE-stimulated [35S]GTPγS binding; format: biochemical; conditions: antagonism of agonist DPDPE; for Kb: read-out: δ, DPDPE Ke
T2 construct: expressed in transfected cells
T2 sequence (P41143 whole entry): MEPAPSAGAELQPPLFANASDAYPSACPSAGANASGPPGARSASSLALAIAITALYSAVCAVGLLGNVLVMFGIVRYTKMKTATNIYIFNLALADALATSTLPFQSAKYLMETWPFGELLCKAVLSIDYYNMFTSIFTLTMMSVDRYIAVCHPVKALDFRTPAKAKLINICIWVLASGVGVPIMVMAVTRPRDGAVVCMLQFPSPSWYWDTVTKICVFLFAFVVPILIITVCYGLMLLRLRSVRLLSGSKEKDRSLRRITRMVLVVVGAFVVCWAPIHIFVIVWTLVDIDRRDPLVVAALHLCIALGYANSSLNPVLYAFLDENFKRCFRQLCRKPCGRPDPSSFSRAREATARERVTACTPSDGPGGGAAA

[3] = molecular target: T3, cloned human κ opioid receptor (Homo sapiens, UniProt P41145); experiment: Inhibition of U69,593-stimulated [35S]GTPγS binding; format: biochemical; conditions: antagonism of agonist U69,593, [35S]GTPγS binding; for Kb: read-out: κ, U69,593 ke
T3 construct: expressed in transfected cells
T3 sequence (P41145 whole entry): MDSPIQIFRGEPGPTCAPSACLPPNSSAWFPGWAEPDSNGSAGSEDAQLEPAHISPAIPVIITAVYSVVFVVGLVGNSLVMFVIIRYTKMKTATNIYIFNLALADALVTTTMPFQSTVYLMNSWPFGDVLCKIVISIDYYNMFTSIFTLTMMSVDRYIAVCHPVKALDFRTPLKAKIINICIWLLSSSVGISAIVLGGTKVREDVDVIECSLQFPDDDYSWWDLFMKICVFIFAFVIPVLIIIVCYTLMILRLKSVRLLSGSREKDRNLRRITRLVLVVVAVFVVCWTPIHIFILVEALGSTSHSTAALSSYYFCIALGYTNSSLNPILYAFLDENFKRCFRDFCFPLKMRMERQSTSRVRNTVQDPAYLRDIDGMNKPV

T1 sequence (P35372 whole entry): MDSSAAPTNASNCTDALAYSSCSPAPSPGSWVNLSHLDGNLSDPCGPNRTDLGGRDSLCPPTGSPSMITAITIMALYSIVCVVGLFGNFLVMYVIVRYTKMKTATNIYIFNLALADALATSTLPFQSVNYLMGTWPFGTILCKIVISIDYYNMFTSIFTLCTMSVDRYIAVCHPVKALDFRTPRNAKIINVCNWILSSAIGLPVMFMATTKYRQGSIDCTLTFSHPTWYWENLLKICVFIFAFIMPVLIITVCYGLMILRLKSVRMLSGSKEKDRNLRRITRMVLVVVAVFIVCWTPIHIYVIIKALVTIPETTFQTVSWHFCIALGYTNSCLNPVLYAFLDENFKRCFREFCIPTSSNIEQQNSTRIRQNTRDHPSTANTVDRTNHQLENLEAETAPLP

| SMILES | Kb [1] [nM] | Kb [2] [nM] | Kb [3] [nM] | other results |
| --- | --- | --- | --- | --- |
| CCC1CN(CCCc2ccccc2)CCN1c1cccc(O)c1.Cl.Cl (stereo not shown) |  |  |  | melting point: 161 to 166 °C |
| C[C@H]1CN(C)CC[C@@]1(C)c1cccc(O)c1 [Compound 2b, reference compound] |  |  |  | μ, DAMGO Ke [1]: 29 ± 3 nM; δ, DPDPE Ke [2]: 680 ± 240 nM; κ, U69,593 ke [3]: 155 ± 24 nM |
| CC1CN(CCCc2ccccc2)CCC1(C)c1cccc(O)c1 (stereo not shown) [Compound 2c, N-phenylpropyl 3,4-dimethyl-4-(3-hydroxyphenyl)piperidine, reference compound] | 0.1 ± 0.02 | 0.9 ± 0.3 | 0.88 ± 0.2 |  |
| Oc1cccc(N2CCN(CCCc3ccccc3)CC2)c1 [Compound 5a, 3-(4-Phenylpropylpiperazin-1-yl)phenol] | 8.5 ± 1.4 | 34 ± 6 | 15 ± 3 |  |
| C[C@H]1CN(CCCc2ccccc2)CCN1c1cccc(O)c1 [Compound 5b, (S)-3-(2-Methyl-4-phenylpropylpiperazin-1-yl)phenol] | 0.88 | 13.4 | 4.09 |  |
| C[C@@H]1CN(CCCc2ccccc2)CCN1c1cccc(O)c1 [Compound 5c, (R)-3-(2-Methyl-4-phenylpropylpiperazin-1-yl)phenol] | 1 ± 0.2 | 7 ± 2 | 1.5 ± 0.4 |  |
| CC1CN(CCCc2ccccc2)CC(C)N1c1cccc(O)c1 (stereo not shown) [Compound 5d, (Z)-3-(2,6-Dimethyl-4-(3-phenylpropyl)piperazin-1-yl)phenol] |  | 4300 | 3 |  |
| C[C@H]1CN(c2cccc(O)c2)[C@@H](C)CN1CCCc1ccccc1 [Compound 5e, 3-[(2S,5S)-2,5-Dimethyl-4-(3-phenylpropyl)piperazin-1-yl]phenol] |  |  | 7 ± 0.3 |  |
| C[C@H]1CN(C)CCN1c1cccc(O)c1 [Compound 5f, (S)-3-(2,4-Dimethylpiperazin-1-yl)phenol] | 508 ± 26 |  | 193 ± 19 |  |
| C[C@@H]1CN(c2cccc(O)c2)[C@@H](C)CN1CCCc1ccccc1 [Compound 5g, 3-((2S,5R)-2,5-Dimethyl-4-(3-phenylpropyl)piperazin-1-yl)phenol] | 6.1 ± 1.7 | 55 ± 3 | 4.2 ± 0.8 |  |
| C[C@@H]1CN(CCCc2ccccc2)[C@@H](C)CN1c1cccc(O)c1 [Compound 5h, 3-((2R,5S)-2,5-Dimethyl-4-(3-phenylpropyl)piperazin-1-yl)phenol] | 18 ± 4 | 179 ± 68 | 26 ± 7 |  |
| CC(C)[C@H](N)CN1CCN(c2cccc(O)c2)[C@@H](C)C1 [Compound 5i, 3-{(2S)-4-[(2S)-2-Amino-3-methylbutyl]-2-methylpiperazin-1-yl}phenol] | 2 | 55 | 10 |  |
| CC(C)[C@@H](CN1CCN(c2cccc(O)c2)[C@@H](C)C1)NC(=O)[C@H]1Cc2ccc(O)cc2CN1 [Compound 5j, (3R)-7-Hydroxy-N-[(1S)-1-{[(3S)-4-(3-hydroxyphenyl)-3-methylpiperazin-1-yl]methyl}-2-methylpropyl]-1,2,3,4-tetrahydroisoquinoline-3-carboxamide] | 22 ± 4 | 274 ± 48 | 2.7 ± 0.1 |  |
| C[C@@H](N)CN1CCN(c2cccc(O)c2)[C@@H](C)C1 [Compound 31b, 3-{(2S)-4-[(2R)-2-amino-propyl]-2-methylpiperazin-1-yl}phenol] |  |  |  | melting point: 210 to 215 °C |
